# From patent US20200215142A1, “PHARMACEUTICAL COMPOSITION CONTAINING AVOCADO OIL FRACTION AS ACTIVE INGREDIENT FOR PREVENTION OR TREATMENT OF HEARING LOSS” (DONG KOOK PHARM CO., LTD, priority 2017, published 2020)
# Legend:
# [1] = system: hair cells of zebrafish reduced by neomycin; test: Hair cells of zebrafish larvae reduced by neomycin (ototoxicity), YO-PRO staining and fluorescence microscope count; assay type: in vivo; settings: neomycin 1 μM 1 h, then single substance 1 μg/ml 12 h (FIGS. 7, 8)
# Experimental: Particularly, 6 days after fertilization, zebrafish […] placed in 24-well plates and neomycin was added thereto at the concentration of 1 μM. One hour later, neomycin was removed and the isopropanol fraction of avocado oil prepared in Example 1 was added at the concentration of 1 μg/ml. At this time, avocado oil was used as the control and 0.03% (w/v) sea salt solution was used as the untreated control. Twelve hours later, 0.1% YO-PRO (Life Technologies, USA) was added to stain hair cells of the […] for 30 minutes. […] Particularly, 6 days after fertilization, zebrafish […] placed in 24-well plates and neomycin was added thereto at the concentration of 1 μM. One hour later, neomycin was removed and A-E were added at the concentration of 10 μg/ml. At this time, 0.03% (w/v) sea salt solution was used as the control. Twelve hours later, 0.1% YO-PRO (Life Technologies, USA) was added to stain hair cells of the […] for 30 minutes. The stained hair cells were observed using a fluorescence microscope (Olympus 1x70, Olympus, Japan), and the number of the observed hair cells was counted and analyzed.
# [2] = system: hair cells of zebrafish reduced by kanamycin; assay type: in vivo; settings: kanamycin 1 μM vs neomycin 1 μM, 1 h; comparison of Experimental Examples 6 and 7
# Experimental: Particularly, 6 days after fertilization, zebrafish larvaes were placed in 24-well plates and kanamycin was added thereto at the concentration of 1 μM. One hour later, kanamycin was removed and IPG and BG were added at the concentration of 10 μg/ml. At this time, 0.03% (w/v) sea salt solution was used as the control. Twelve hours later, 0.1% YO-PRO (Life Technologies, USA) was added to stain hair cells of the larvaes for 30 minutes. The stained hair cells were observed using a fluorescence microscope (Olympus 1x70, Olympus, Japan), and the number of the observed hair cells was counted and analyzed. As a result, the number of hair cells observed with a fluorescence microscope was shown in FIG. 11 and photomicrographs of the hair cells taken with a fluorescence microscope were shown in FIG. 12.
SMILES,number of hair cells [1],toxicity to hair cells of zebrafish fry (reduction of the number of hair cells) [2]
CC/C=C\C/C=C\C/C=C\CCCCCCCC(=O)O [alpha-linolenic acid],significantly increased,
NC[C@H]1O[C@H](O[C@H]2[C@H](O)[C@@H](O[C@H]3O[C@H](CO)[C@@H](O)[C@H](N)[C@H]3O)[C@H](N)C[C@@H]2N)[C@H](O)[C@@H](O)[C@@H]1O [kanamycin],,more toxic than neomycin
CCCCC/C=C\C/C=C\CCCCCCCC(=O)O [linoleic acid],significantly increased,
CCCCCCCCCCCCCCCCCC(=O)O [stearic acid],significantly increased,
